# Entries after “also recorded” stand apart in the source; their conditions may differ.
# Columns and labels:
# NCX1Δf = target: T1, NCX1Δf (Canis lupus familiaris, UniProt P23685, DEL273-712); test: Na+-dependent Ca2+ influx assay on BHK cells with f-loop deletion mutant; assay type: cell-based; details: 10 nM; compared to wild-type NCX3 exposed to the same treatment
# T1 construct: expressed in transfected cells
# Experimental: In order to establish the molecular determinants of the effect of neurounina-1 on NCX1, we firstly performed a Na^+-dependent Ca^2+ influx assay on BHK cells stably transfected with a mutated NCX1 exchanger (NCX1Δf), in which a large portion of the f loop, region 241-680, was removed by deletion mutagenesis.
# (§1) All experiments aimed to identify the binding site of neurounina-1 were performed on BHK cells stably transfected with a single NCX chimera or mutant.
# (§2) The activity of the Na^+/Ca^2+ exchanger was measured by means of ^45Ca^2+ radiotracer variations in the cytoplasm of cells exposed to a protocol stimulating the forward or the reverse mode of the antiporter. The BHK cells expressing each mutated or non-mutated NCX isoform were cultured in 12-well dishes and incubated in 145 mM NaCl for 10 minutes and then in a medium containing only 145 mM N-Methyl D-glucamine (NMDG) and 10 µM of ^45Ca^2+. This rapid substitution of the medium from a high level of Na^+ to another one without Na^+ allow the ^45Ca^2+ influx (reverse mode). Before the medium substitution cells was incubated with 1 mM ouabain, a Na^+/K^+ pump inhibitor, and 10 µM monensin, a ionophore for extracellular Na^+. […] The medium was removed and cells were subsequently lysed with 0.1 N NaOH and aliquots were taken to determine radioactivity and protein content.
# NCX1 L808F = target: T2, NCX1 L808F (Canis lupus familiaris, UniProt P23685, L840F); test: NCX1 point mutant activity (45Ca2+ uptake and Fura-2); assay type: cell-based; details: single mutation, functional exchanger
# T2 construct: expressed in transfected cells
# T2 sequence (P23685 33-970 L840F): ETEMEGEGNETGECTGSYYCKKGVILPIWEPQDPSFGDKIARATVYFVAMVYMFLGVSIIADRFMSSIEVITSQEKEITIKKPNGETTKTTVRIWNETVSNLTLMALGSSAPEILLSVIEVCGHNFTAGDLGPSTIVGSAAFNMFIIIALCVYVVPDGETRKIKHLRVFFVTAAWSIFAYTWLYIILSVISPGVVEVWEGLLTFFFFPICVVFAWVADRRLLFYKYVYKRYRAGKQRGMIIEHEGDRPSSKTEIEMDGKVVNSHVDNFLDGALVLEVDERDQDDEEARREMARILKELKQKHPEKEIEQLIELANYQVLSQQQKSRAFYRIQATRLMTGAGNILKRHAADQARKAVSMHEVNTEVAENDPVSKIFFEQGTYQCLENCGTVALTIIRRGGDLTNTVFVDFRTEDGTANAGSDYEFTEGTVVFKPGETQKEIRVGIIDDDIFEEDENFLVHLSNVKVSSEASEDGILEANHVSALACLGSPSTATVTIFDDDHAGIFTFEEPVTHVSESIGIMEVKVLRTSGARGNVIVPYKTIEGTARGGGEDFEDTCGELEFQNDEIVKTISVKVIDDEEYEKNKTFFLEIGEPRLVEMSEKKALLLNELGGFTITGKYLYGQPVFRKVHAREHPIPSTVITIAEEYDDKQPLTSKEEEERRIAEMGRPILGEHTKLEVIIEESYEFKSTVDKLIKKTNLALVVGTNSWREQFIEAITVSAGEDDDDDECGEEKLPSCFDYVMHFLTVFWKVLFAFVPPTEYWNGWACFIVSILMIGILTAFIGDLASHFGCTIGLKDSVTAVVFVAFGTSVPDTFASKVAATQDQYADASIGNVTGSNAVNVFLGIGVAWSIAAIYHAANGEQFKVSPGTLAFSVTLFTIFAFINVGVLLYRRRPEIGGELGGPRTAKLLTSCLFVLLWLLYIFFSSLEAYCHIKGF
# Experimental: (§3) To identify the critical residues involved in drug sensitivity between NCX1 and NCX3 proteins, each residue in NCX1, in the regions α1 and α2, was substituted with the corresponding residue in NCX3.
# as §1, §2
# (§4) Briefly, BHK cells wild type and/or BHK trasnsfected with NCX mutants, grown on glass coverslips, were loaded with Fura-2 acetoxymethyl ester (Fura-2AM) (10 µM) for 30 minutes at 37°C in normal Krebs solution containing the following (in mM): 5.5 KCI, 160 NaCl, 1.2 MgCl2, 1.5 CaCl2, 10 glucose, and 10 Hepes-NaOH, pH 7.4. […] Fura-2 fluorescence intensity was measured every 3 seconds. […] NCX activity was evaluated as Ca2+ uptake through the reverse mode by switching the normal Krebs medium containing thapsigargi (1µM) to Na^+-deficient NMDG+ medium (Na^+-free) containing (in mM): 5.5 KCI, 147 N-Methyl glucamine, 1.2 MgCl2, 1.5 CaCl2, 10 glucose, and 10 Hepes-NaOH (pH 7.4). All the results are presented as percentage of cytosolic Ca^2+ concentration increase above basal values and expressed as mean± S.E.M.
# NCX1 N124G = target: T3, NCX1 N124G (Canis lupus familiaris, UniProt P23685, N157G); test: as above; assay type: cell-based; details: single mutation, functional exchanger
# T3 construct: expressed in transfected cells
# T3 sequence (P23685 33-970 N157G): as the sequence (P23685 33-970 L840F) above, with N125G, F808L counted along it
# Experimental: as §3, §1, §2, §4
# NCX1 V117L = target: T4, NCX1 V117L (Canis lupus familiaris, UniProt P23685, V150L); test: as above; assay type: cell-based; details: single mutation, functional exchanger
# T4 construct: expressed in transfected cells
# T4 sequence (P23685 33-970 V150L): as the sequence (P23685 33-970 L840F) above, with V118L, F808L counted along it
# Experimental: as §3, §1, §2, §4
# BHK cells = test: Mitochondrial dehydrogenase activity (MTT); assay type: cell-based, hamster
# [1] = tested on: ischemic volume after tMCAO; test: Transient middle cerebral artery occlusion (tMCAO) cerebral ischemia model; assay type: in vivo, mice
# From the text: For experimental stroke male wild-type C57BL of 2 months have been used. All mice were anesthetized with a gas containing 70 % N2O, 28% O2 e 2% sevoflurane).
# Usually, after anesthesia an incision on the ventral neck is made and, under an operating stereo-microscope and with the help of microsurgery twizzers, the muscle is diverted until the common carotid artery (CCA). Then, through smoothly diversion, the CCA is isolated from the vague nerve and the jugulars vein. Analogously, the external carotid artery (ECA) and the internal carotid artery (ICA) are isolated as well.After the isolation of these vessels and the positioning of vascular microclips, a nylon filament (5-0, Ethilon, 11 mm length) is inserted into the internal carotid artery (ICA), at the level of bifurcation with the common carotid artery. The filament is pushed in cranial direction until is reached the bifurcation of the middle cerebral artery (MCA), whose flux is interrupted. After the insertion of the filament the wound is closed with a temporary suture and the mouse is let to awake. After 60 minutes the animal is re-anesthesized and the ischemia is interrupted through the filament rimotion from the vessel. The reduction in cerebral blood flow has been evaluated by means of a cerebral laser-Doppler system (Periflux, Sweden with software Perimed 1.30) that uses a probe fixed on the skull. The body temperature has been maintained constant by means of a homoeothermic blanket connected to a rectal probe. Few minutes after the end of the surgical procedure the mouse awakes and, on the nasis of the pain degree noticed, is decided for the administration of analgesic drugs. Neurounina-1 administration has been done intraperitoneally at different dosages, immediately before, 3 hours or 5 hours the ischemia onset. 24 hours after the surgical procedure, the animal is killed through cervical dislocation and the brain is removed from the skull and analyzed for the determination of the ischemic damage extension. In particular, by means of a vibratome, serial coronal brain sections of […] are obtained. These brain sections are treated with 2,3,5-triphenyl tetrazolium chloride (TTC), an organic compound that has the peculiarity of being oxidized and precipitated as formazan salt only from vital tissue. By contrast, the ischemic tissue, being not able to generate this reaction, remains white. […] The software used (Image Pro-plus 4.1) allows, then, to obtain the brain infarct volume from the value of the infarct areas obtained in close brain slices.Data obtained in this manner are then elaborated to obtain a percentage evaluation of the ischemic damage induced compared to the brain hemisphere […] to the ischemic lesion.
# T1 sequence (P23685 with tags, fused parts or gaps DEL273-712): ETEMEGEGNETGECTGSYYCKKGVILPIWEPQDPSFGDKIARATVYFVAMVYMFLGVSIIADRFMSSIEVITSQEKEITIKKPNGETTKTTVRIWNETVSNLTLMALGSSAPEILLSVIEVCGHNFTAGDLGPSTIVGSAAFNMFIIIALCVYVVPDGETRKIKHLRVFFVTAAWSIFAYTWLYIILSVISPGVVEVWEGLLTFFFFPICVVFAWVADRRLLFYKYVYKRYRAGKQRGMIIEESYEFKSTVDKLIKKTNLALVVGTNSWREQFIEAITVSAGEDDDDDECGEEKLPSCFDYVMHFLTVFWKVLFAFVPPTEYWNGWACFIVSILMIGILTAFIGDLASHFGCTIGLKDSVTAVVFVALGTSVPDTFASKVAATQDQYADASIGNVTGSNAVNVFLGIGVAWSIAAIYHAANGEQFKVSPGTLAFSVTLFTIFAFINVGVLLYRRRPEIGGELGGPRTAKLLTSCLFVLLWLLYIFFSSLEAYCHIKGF
structure (smiles),measurement,setting,value
"O=C1CN=C(c2ccccc2)c2cc([N+](=O)[O-])ccc2N1CN1CCCC1 [neurounina-1, 7-nitro-5-phenyl-1-(pyrrolidin-1-ylmethyl)-1H-benzo[e][1,4]diazepin-2(3H)-one]",activity of the mutant NCX1Δf,NCX1Δf,significantly increased
same,sensitivity of NCX1 mutant L808F,NCX1 L808F,insensible
same,sensitivity of NCX1 mutant N124G,NCX1 N124G,insensible
same,sensitivity of NCX1 mutant V117L,NCX1 V117L,insensible
same,non-toxic concentration relative to EC50,BHK cells; 10 µM versus EC50,~10.000 times
same,mitochondrial activity,"BHK cells; 10 µM, 24 hours, BHK cells",did not show any toxic effect; also recorded: did not affect
same,ischemic damage,"[1]; administered just before tMCAO induction, 3 ng/kg, intraperitoneal",significantly reduced ischemic damage
same,minimal dose with neuroprotective effect,"[1]; five hours from tMCAO, intraperitoneal",0.03 mg/kg
same,neuroprotective effect,"[1]; intraperitoneally 3 hours after tMCAO, dose-range 3 ng/kg to 30 µg/kg",still present
same,ischemic volume,"[1]; mice, intraperitoneal administration, tMCAO",decreased the ischemic volume

# From patent EP2646421B1, “7-NITRO-5-PHENYL-1-(PYRROLIDIN-1-YLMETHYL)-1H-BENZO[E][1,4]DIAZEPIN-2(3H)-ONE AND OTHER BENZODIAZEPINE DERIVATIVES” (Pignataro, Giuseppe, priority 2010, dated 2012)
